Results on three molecules are retold here after US10314923B2, “Silybin injection and preparation method therefor” (TASLY PHARMACEUTICAL GROUP CO., LTD., priority 2015, dated 2019).

For data set [1] the following is noted: aqueous solution; cited from earlier work.
Data set [2] is described as follows: Verification of preparation method of CN02125823.6: discoloration and UV scanning for destructiveness of NaOH to silybin. The class given is physicochemical. Conditions: scanned within the wavelength of 190-600 nm. From the text: The Chinese patent application CN02125823.6 with the title “silymarin injection containing cyclodextrin or derivatives thereof” and the publication number of CN1391894A, according to the implementing scheme recorded in the Description, has the key technical features of adding silymarin into an aqueous solution containing cyclodextrin, regulating the pH of the solution to alkalinity using sodium hydroxide to dissolve silybin, and after dissolution, regulating the pH value to be 6.0 to 6.5 using hydrochloric acid to obtain a silymarin cyclodextrin inclusion compound. During verification, the silymarin is replaced with silybin, and the verification is strictly performed according to the implementing scheme described in embodiment 1 of the patent.
Dissolving 3 g of hydroxypropyl-β-cyclodextrin in 10 ml of water for injection, adding 300 mg of silybin, regulating the pH value to be 10 with 1N of NaOH solution, continuously stirring for 5 hours to dissolve the silybin, regulating the pH to be 6.5 with 1N of HCl solution, and performing filtration, bacterium removal, sub-packaging, freeze-drying and sealing, to obtain a silybin freeze-dried powder for injection.
However, for the preparation method of the present invention, the discoloration phenomenon is not found in the whole preparation process. […]

For data set [3] the following is noted: Wang Hongchen 1983; cited from earlier work.
For data set [4] the following is noted: taken orally; Wu J W et al. 2007; cited from earlier work.
Data set [5] is described as follows: Inclusion stability of silybin injections containing different types of cyclodextrin, standing at room temperature. It is filed as physicochemical. Conditions: 50 g of cyclodextrin in 1000 ml of water for injection. The source says: The types of cyclodextrin recorded in the Chinese patent application CN200410041364.0 include: β-cyclodextrin, hydroxypropyl-β-cyclodextrin, hydroxyethyl-β-cyclodextrin, methyl-β-cyclodextrin, glucosyl-β-cyclodextrin and sulfonyl-β-cyclodextrin. The cyclodextrin adopted in the present invention is sulfobutylether-β-cyclodextrin and is a specific inclusion material for the present invention. In contrast tests, silybin injections containing different types of cyclodextrin are respectively prepared by adopting the same formulation constituents, formulation dosage and preparation process. Standing is preformed at room temperature for one-week, and the inclusion stability of the injections is observed with the passage of time, that is, the time of medicine precipitation is regarded as a study index to screen the types of cyclodextrin.
Allow the injections to stand at room temperature for one week, and respectively observe the inclusion stability of the injections over time, i.e., study the influence of different types of cyclodextrins on the inclusion stability of silybin.

The structures appear in SMILES notation.

Consider `CNC[C@H](O)[C@@H](O)[C@H](O)[C@H](O)CO.COc1cc(C2Oc3ccc(C4Oc5cc(O)cc(O)c5C(=O)C4O)cc3OC2CO)ccc1O` (centres unmarked) [silybin N-methylglucamine], for which, in data set [1], the pH value entry is “about 11”.
In the case of `COc1cc([C@@H]2Oc3cc([C@@H]4Oc5cc(O)cc(O)c5C(=O)[C@H]4O)ccc3O[C@H]2CO)ccc1O` [silybin, Silybin], the “UV absorption peaks (verification of destructiveness caused by NaOH to silybin)” value in data set [2] worked out at 287.5 nm. The “water solubility and lipid solubility” value in data set [3] is reported as “poor”. Further, the absolute bioavailability in data set [4] is listed as 0.95%.
Turning to `OC[C@H]1O[C@@H]2O[C@H]3[C@H](O)[C@@H](O)[C@@H](O[C@H]4[C@H](O)[C@@H](O)[C@@H](O[C@H]5[C@H](O)[C@@H](O)[C@@H](O[C@H]6[C@H](O)[C@@H](O)[C@@H](O[C@H]7[C@H](O)[C@@H](O)[C@@H](O[C@H]8[C@H](O)[C@@H](O)[C@@H](O[C@H]1[C@H](O)[C@H]2O)O[C@@H]8CO)O[C@@H]7CO)O[C@@H]6CO)O[C@@H]5CO)O[C@@H]4CO)O[C@@H]3CO` [β-cyclodextrin], the “dissolution of cyclodextrin in water” value in data set [5] is “cannot completely dissolve in water”.
